Results reported in patent publication US20250051337A1 (priority 2021, published 2025).

Assays:
STK3 [1] = target: T1, STK3 (Homo sapiens (Human), UniProt Q13188); test: NanoBRET intracellular kinase assay, STK3; format: cell-based
Method: Full-length STK3, STK4, and LRRK2 kinase was cloned in-frame with a C-terminal NanoLuc-fusion (Promega: Madison, WI, USA) and the plasmid was transfected into HEK293T cells using FuGENE HD (Promega, E2312). […] After 2 h at 37° C. in a 5% CO2 atmosphere, NanoBRET NanoGlo Substrate+Extra-cellular NanoLuc Inhibitor (Promega, N2540) was added, and filtered luminescence was measured on a PHERAstar plate reader (BMG Labtech; Ortenberg, Germany) equipped with a lumi-nescence filter pair (450 nm BP filter (donor) and 610 nm LP filter (acceptor)).
This assay measured the apparent affinity of test compounds by competitive displacement of the NanoBRET™ tracer, reversibly bound to a NanoLuc® luciferase-kinase fusion in cells. To evaluate potential off-target activity of the inhibitors, the inhibition of LRRK2 in live cells by the STK3/4 inhibitors compounds described herein were measured. […] A 50 nM tracer and these compounds were added to cells and incubated for 2 h.

LRRK2 = LRRK2 (Homo sapiens (Human), UniProt Q5S007); test: NanoBRET intracellular kinase assay, LRRK2; format: cell-based; details: transfected HEK293 cells, 2 h
Method: Full-length STK3, STK4, and LRRK2 kinase was cloned in-frame with a C-terminal NanoLuc-fusion (Promega: Madison, WI, USA) and the plasmid was transfected into HEK293T cells using FuGENE HD (Promega, E2312). After 20 h, transfected cells were mixed with inhibitors and 50 nM NanoBRET Kinase Tracer K10 (Promega) and reseeded at a density of 2× 10^5 cells/mL in Opti-Minimal Essential Medium (MEM) without phenol red (Life Technologies; Carlsbad, CA, USA) in 384-well plates (Greiner 781-207; Kremsmunster, Austria). After 2 h at 37° C. in a 5% CO2 atmosphere, NanoBRET NanoGlo Substrate+Extra-cellular NanoLuc Inhibitor (Promega, N2540) was added, and filtered luminescence was measured on a PHERAstar plate reader (BMG Labtech; Ortenberg, Germany) equipped with a lumi-nescence filter pair (450 nm BP filter (donor) and 610 nm LP filter (acceptor)).
To confirm cellular potency for compounds described herein, the […] were used to detect engagement of STK3 and STK4 in live cells using the NanoBRET™ intracellular kinase assay, marking the first report of a NanoBRET assay for STK3 and STK4. This assay measured the apparent affinity of test compounds by competitive displacement of the NanoBRET™ tracer, reversibly bound to a NanoLuc® luciferase-kinase fusion in cells. To evaluate potential off-target activity of the inhibitors, the inhibition of LRRK2 in live cells by the STK3/4 inhibitors compounds described herein were measured. Cultured HEK293 cells were either transfected with NanoLuc®-STK3 fusion vector, NanoLuc®-STK4 fusion, or with NanoLuc®-LRRK2 vector for 24 h. A 50 nM tracer and these compounds were added to cells and incubated for 2 h. These compounds tested in the assays decreased the NanoBRET™ signal for both STK3 and STK4 at varying potencies and confirming cellular target engagement of STK3/4.

STK3 [2] = target: T1, STK3; test: ADP-Glo kinase assay, STK3; format: biochemical; details: ADP-Glo, 50 μM ATP; read-out: STK3 IC50
Procedure, shortened: (§1)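 Full-length recombinant human STK3 (50 ng) phosphorylated 250 μg/mL myelin basic protein, and full-length STK4 (50 ng) phosphorylated 300 μg/mL Axltide, both at 50 μM ATP; ADP formed detected by ADP-Glo. Three experiments, each in triplicate.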

[3] = In vivo plasma and liver concentrations, 20 mg/kg intraperitoneal; details: female, C57BL/6J, mouse, ip, 20 mg/kg
Method: All animal procedures were approved by the Sanford Burnham Prebys Medical Discovery Institute Institutional Animal Care and Use Committee and were performed according to the NIH guidelines for the Care and Use of Laboratory Animals. Adult female C57BL/6J mice were purchased from Jackson Laboratories and housed with free access to food and water on a 12 h light/dark cycle. Compounds were formulated in 5% DMSO, 10% Tween-80, and 85% H2O and injected intraperitoneally at 10 or 20 mg/kg. Blood samples were collected retro-orbitally at the indicated times and plasma was prepared by centrifugation. Livers were collected post mortem at the indicated times.
For quantification of compound, plasma samples were extracted with acetonitrile: water 4:1 with 0.1% formic acid containing indomethacin as an internal standard. Samples were centrifuged and the supernatants were diluted with acetonitrile: water and analyzed by LC-MS/MS using a Shimadzu Nexera X2 High-performance liquid chromatography (HPLC) (Shimadzu Scientific Instruments: Kyoto, Japan) coupled to an AB Sciex 6500 QTRAP (AB Sciex LLC: Toronto, Canada).
Adult female C57BL/6 mice (n=3/group) were intraperitoneally injected with vehicle or test compound (20 mg/kg), and blood samples and livers were collected at 30 min and 1 h post-injection, respectively. Plasma concentrations of all 13 compounds were >1.4 μM at 30 min after injection, and 10 compounds had liver concentrations >1.0 μM at 1 h after injection, as measured by LC-MS/MS, with particularly high plasma concentrations obtained with compounds 11 (15.9 μM), 16 (11.6 μM) and 105 (8.7 μM) (Table 5). To evaluate target engagement in vivo, the total and phosphorylated MOB1 levels in livers collected at 1 h post-injection was examined.
Tween 80 and water and were administered to mice by intraperitoneal injection. Blood samples and livers were collected at 30 min and 1 h post-dose, respectively. Plasma concentrations and relative pMOB1 levels were determined by LC-MS/MS and western blot analysis, respectively. (n=3).

STK3 [4] = target: T1, STK3; test: Thermal shift assay (ThermoFluor differential scanning fluorimetry); format: binding; details: read-out: ΔTm
Method: Temperature-dependent protein unfolding profiles were measured using a Real-Time PCR Mx3005p machine (Stratagene: San Diego, CA, USA). Data evaluation and melting temperature calculation were performed using Protein Thermal Shift™ Software v1.2.
To further evaluate binding of these compounds to STK3/4, differential scanning fluorimetry (protein thermal shift using ThermoFluor technology) assay was used to benchmark the capacity to stabilize the kinase domain. The melting temperature (Tm) of STK3 or STK4 was measured in the presence of vehicle (DMSO) or 6, 11 or 23.

STK4 = STK4 (Homo sapiens (Human), UniProt Q13043); test: ADP-Glo kinase assay, STK4; format: biochemical; details: ADP-Glo, 50 μM ATP; read-out: STK4 IC50
Procedure, shortened: as §1

[5] = NanoBRET, transfected HEK293 cells, 2 h, read-out: STK3: IC50

T1 sequence (Q13188 whole entry, the tested form may be a part): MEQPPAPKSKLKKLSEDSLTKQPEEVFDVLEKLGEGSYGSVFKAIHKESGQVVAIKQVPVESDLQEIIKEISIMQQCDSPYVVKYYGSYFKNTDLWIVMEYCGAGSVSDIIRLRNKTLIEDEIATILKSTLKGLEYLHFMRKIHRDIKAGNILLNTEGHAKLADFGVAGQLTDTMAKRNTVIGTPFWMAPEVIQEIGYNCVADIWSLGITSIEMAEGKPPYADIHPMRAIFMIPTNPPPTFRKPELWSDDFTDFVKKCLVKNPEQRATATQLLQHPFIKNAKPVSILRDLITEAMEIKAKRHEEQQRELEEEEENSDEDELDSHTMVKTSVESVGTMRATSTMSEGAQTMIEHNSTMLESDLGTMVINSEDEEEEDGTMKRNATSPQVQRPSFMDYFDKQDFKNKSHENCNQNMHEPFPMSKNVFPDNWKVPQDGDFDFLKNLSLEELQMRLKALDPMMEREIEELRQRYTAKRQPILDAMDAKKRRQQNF
STK4, sequence (Q13043 whole entry): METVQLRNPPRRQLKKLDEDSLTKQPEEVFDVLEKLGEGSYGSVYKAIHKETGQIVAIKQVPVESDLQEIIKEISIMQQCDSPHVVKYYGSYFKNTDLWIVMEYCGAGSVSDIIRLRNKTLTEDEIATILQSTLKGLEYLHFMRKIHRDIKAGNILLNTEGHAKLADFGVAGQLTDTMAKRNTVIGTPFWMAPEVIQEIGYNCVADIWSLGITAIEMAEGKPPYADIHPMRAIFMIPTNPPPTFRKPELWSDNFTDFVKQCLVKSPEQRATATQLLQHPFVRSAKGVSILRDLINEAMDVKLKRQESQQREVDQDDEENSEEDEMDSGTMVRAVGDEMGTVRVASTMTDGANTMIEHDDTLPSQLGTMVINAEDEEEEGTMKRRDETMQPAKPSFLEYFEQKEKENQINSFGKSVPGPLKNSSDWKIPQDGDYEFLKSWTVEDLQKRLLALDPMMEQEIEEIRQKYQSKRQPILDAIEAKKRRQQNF
LRRK2, sequence (Q5S007 whole entry, species assumed, the tested form may be a part): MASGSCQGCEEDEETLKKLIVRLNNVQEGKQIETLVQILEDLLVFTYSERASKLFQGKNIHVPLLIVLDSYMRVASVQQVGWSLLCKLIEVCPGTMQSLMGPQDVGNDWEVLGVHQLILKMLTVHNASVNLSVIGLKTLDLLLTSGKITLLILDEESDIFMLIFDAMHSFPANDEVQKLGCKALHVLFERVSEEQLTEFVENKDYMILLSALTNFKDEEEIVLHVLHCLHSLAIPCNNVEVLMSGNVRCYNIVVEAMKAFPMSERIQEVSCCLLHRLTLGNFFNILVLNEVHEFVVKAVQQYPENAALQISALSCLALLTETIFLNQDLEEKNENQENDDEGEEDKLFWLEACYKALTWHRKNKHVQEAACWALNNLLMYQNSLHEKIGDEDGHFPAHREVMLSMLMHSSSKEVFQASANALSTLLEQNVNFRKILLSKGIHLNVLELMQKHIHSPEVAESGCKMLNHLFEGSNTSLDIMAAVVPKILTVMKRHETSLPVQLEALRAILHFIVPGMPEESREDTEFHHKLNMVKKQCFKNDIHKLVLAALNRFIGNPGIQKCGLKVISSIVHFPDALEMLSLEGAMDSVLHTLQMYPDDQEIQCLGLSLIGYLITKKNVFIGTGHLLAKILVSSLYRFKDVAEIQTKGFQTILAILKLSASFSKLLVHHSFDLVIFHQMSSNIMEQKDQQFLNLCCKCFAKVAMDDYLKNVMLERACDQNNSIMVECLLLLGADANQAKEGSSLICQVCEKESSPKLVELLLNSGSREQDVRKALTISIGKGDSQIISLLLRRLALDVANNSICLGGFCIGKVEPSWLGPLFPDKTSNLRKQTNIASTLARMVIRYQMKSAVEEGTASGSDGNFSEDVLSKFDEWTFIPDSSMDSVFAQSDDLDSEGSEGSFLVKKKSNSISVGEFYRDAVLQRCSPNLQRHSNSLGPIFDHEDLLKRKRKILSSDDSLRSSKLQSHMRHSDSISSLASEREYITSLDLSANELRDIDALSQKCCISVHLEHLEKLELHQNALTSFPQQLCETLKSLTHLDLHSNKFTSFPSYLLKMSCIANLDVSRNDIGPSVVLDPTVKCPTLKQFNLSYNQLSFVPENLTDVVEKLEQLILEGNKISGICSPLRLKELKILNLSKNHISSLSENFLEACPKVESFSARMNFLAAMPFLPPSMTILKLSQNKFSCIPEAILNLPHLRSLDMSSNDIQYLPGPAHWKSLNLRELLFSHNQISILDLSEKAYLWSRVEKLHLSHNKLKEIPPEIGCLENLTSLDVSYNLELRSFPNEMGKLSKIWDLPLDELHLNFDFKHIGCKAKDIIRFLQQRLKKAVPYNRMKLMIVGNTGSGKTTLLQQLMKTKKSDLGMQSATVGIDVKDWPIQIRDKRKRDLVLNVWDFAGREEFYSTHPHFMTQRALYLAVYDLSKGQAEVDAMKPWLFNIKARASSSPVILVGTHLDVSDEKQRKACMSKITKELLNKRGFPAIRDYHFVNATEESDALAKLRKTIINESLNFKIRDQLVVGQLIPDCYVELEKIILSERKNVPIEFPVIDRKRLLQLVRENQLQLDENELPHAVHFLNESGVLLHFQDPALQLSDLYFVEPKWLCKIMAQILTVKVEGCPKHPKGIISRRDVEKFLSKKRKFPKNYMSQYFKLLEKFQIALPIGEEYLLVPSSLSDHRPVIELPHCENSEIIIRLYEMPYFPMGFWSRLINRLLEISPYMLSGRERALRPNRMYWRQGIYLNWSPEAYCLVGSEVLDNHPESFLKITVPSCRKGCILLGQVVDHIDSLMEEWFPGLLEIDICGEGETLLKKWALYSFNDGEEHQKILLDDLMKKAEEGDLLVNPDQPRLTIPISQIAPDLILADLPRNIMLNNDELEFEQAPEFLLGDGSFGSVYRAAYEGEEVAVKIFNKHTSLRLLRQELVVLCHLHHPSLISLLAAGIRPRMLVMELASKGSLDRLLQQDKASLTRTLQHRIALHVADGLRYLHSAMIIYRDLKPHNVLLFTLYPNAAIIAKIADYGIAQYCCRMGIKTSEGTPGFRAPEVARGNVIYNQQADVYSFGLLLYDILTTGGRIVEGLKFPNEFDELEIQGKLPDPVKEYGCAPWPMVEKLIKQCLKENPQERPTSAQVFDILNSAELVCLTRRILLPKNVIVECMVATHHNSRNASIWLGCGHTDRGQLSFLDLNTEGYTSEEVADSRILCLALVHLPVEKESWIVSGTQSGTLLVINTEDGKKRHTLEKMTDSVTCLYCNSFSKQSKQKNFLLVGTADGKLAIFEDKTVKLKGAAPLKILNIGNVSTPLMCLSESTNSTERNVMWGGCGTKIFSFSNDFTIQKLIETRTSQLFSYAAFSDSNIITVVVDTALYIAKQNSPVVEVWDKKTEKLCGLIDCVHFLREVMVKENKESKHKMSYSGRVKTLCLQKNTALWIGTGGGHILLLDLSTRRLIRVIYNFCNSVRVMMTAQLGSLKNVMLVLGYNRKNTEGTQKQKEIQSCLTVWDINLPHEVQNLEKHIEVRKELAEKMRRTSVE

IC50 (STK3 [2])	IC50 (STK4)	Structure (SMILES)	concentration at 30 min [3]	concentration at 1 h [3]	other results
–	–	CNC1CCN(c2ncnc3[nH]cc(-c4cccc(Cl)c4)c23)CC1 [Compound 106, 1-(5-(3-chlorophenyl)-7H-pyrrolo[2,3-d]pyrimidin-4-yl)-N-methylpiperidin-4-amine]	2.2 µM	7.8 µM	IC50 (LRRK2): ≥ 2 µM
1 to 5 µM	1 to 5 µM	CC(=O)NC1(C)CCN(c2ncnc3[nH]cc(-c4cccc(Cl)c4)c23)CC1 [Compound 124, N-(1-(5-(3-chlorophenyl)-7H-pyrrolo[2,3-d]pyrimidin-4-yl)-4-methylpiperidin-4-yl)acetamide]	–	–	–
< 1 µM	< 1 µM	CC(CNc1ncnc2[nH]cc(-c3cccc(Cl)c3)c12)C(N)=O (centres unmarked) [Compound 125, 3-((5-(3-chlorophenyl)-7H-pyrrolo[2,3-d]pyrimidin-4-yl)amino)-2-methylpropanamide]	–	–	–
1 to 5 µM	1 to 5 µM	CC(CNc1ncnc2[nH]cc(-c3cccc(Cl)c3)c12)C(=O)O (centres unmarked) [Compound 126, 3-((5-(3-chlorophenyl)-7H-pyrrolo[2,3-d]pyrimidin-4-yl)amino)-2-methylpropanoic acid]	–	–	–
< 1 µM	< 1 µM	CC(CN)CNc1ncnc2[nH]cc(-c3cccc(Cl)c3)c12 (centres unmarked) [Compound 127, N^1-(5-(3-chlorophenyl)-7H-pyrrolo[2,3-d]pyrimidin-4-yl)-2-methylpropane-1,3-diamine]	–	–	–
< 1 µM	< 1 µM	CC(=O)NCC(C)CNc1ncnc2[nH]cc(-c3cccc(Cl)c3)c12 (centres unmarked) [Compound 129, N-(3-((5-(3-chlorophenyl)-7H-pyrrolo[2,3-d]pyrimidin-4-yl)amino)-2-methylpropyl)acetamide]	–	–	–
1 to 5 µM	1 to 5 µM	CC(=O)NCC(C)CNc1ncnc2[nH]cc(-c3ccccc3)c12 (centres unmarked) [Compound 130, N-(2-methyl-3-((5-phenyl-7H-pyrrolo[2,3-d]pyrimidin-4-yl)amino)propyl)acetamide]	–	–	–
> 5 µM	> 5 µM	CNCC(C)CNc1ncnc2[nH]cc(-c3cccc(Cl)c3)c12 (centres unmarked) [Compound 131, N^1-(5-(3-chlorophenyl)-7H-pyrrolo[2,3-d]pyrimidin-4-yl)-N^3,2-dimethylpropane-1,3-diamine]	–	–	–

Structure (SMILES)	IC50 (STK3 [2])	IC50 (STK4)	concentration at 30 min [3]	concentration at 1 h [3]	other results
Cc1cccc(-c2c[nH]c3ncnc(N4CCOCC4)c23)c1 [Compound 5, 4-(5-(m-Tolyl)-7H-pyrrolo[2,3-d]pyrimidin-4-yl)morpholine]	< 1 µM	–	2.8 µM	7.3 µM	IC50 (STK3 [1]; [5]): < 1 µM; IC50 (LRRK2): ≤ 1 µM
Clc1cccc(-c2c[nH]c3ncnc(N4CCCCC4)c23)c1 [Compound 15, 5-(3-Chlorophenyl)-4-(piperidin-1-yl)-7H-pyrrolo[2,3-d]pyrimidine]	< 1 µM	–	3.7 µM	6.5 µM	IC50 (STK3 [1]): 1 to 5 µM; LRRK2: IC50 (LRRK2): B (B: IC50 is >2000 nM and <1000 nM); ΔTm at 10 µM (STK3 [4]): 8.3 °C
CC1(N)CCN(c2ncnc3[nH]cc(-c4cccc(Cl)c4)c23)CC1 [Compound 102, 1-(5-(3-chlorophenyl)-7H-pyrrolo[2,3-d]pyrimidin-4-yl)-4-methylpiperidin-4-amine]	< 1 µM	–	1.4 µM	15.9 µM	–
OCCCNc1ncnc2[nH]cc(-c3cccc(Cl)c3)c12 [Compound 119, 3-((5-(3-chlorophenyl)-7H-pyrrolo[2,3-d]pyrimidin-4-yl)amino)propan-1-ol]	< 1 µM	–	4.5 µM	0.003 µM	IC50 (STK3 [1]; [5]): < 1 µM; IC50 (LRRK2): ≥ 2 µM
CC(=O)N(C)CC(C)CN(C)c1ncnc2[nH]cc(-c3cccc(Cl)c3)c12 (centres unmarked) [Compound 128]	< 1 µM	1 to 5 µM	–	–	–
